Source: PubChem BioAssay AID1918952 (Molecular Pharmacology Branch, DTP, NCI, 2023)

Test system: LG0703-F948-PDC complex spheroid viability
Assay: Anticancer human tumor LG0703-F948-PDC patient-derived lung adenocarcinoma cell line growth inhibition
Details: for IC50: curve of first compound; for viability, T/C: stronger effect = lower value
Excerpt: Multicellular complex tumor spheroid response to LSD1 Inhibitor Iadademstat in combination with a variety of drugs and investigational agents in selected tumor cell lines
The current study was undertaken to assess response to LSD1 inhibitors in combination with standard-of-care drugs and investigational agents in solid tumor complex spheroid models as well as in the K-562 leukemia. Complex spheroids include a stromal component modeled by human endothelial cells (HUVEC) and fibroblasts modeled by human mesenchymal stem cells (MSCs). The concentration ranges selected for each drug and investigational agent were based upon clinically achievable concentrations if the clinical Cmax of the agent was known.
Compounds. The drugs and investigational agents used in this study are listed on Table 1. All of the agents used, including staurosporine (NSC755774) and gemcitabine (NSC613327), were obtained from the Developmental Therapeutics Program, NCI. FDA-approved anticancer drugs are available from the NCI at http://dtp.nci.nih.gov/branches/dscb/oncology_drugset_explanation.html. Drugs and investigational agents were >95% pure by proton nuclear magnetic resonance (NMR) and liquid chromatography/mass spectrometry (LC/MS). Stock solutions were prepared at 400x in DMSO, stored at -70 degrees C, and diluted in fresh medium prior to their use. The final concentration of DMSO in cell culture wells never exceeded 0.25% (v/v). The FDA-approved anticancer drug set is available from the Developmental Therapeutics Program at https://dtp.cancer.gov/organization/dscb/obtaining/available_plates.htm. All drugs and investigational agents were tested over a range starting from a high concentration at or near the clinical Cmax and decreasing in half-log increments. If the clinical Cmax for an agent had not been determined, the highest concentration tested was 10 microM.
Cell Lines. The patient-derived cancer cell (PDC) lines: 292921-168-R-J2-PDC, K24384-001-R-PDC, and 521955-158-R2-J5-PDC pancreatic carcinomas, 556581-035-R-J1 ovarian carcinoma, 324938-238-R-J1-PDC, 855422-203-R-J1-PDC and 883617-216-R-J1-PDC urothelial bladder carcinomas, 743489-274-T-PDC renal cell carcinoma, 138582-R-J1 Merkel cell tumor, K60290-347-R-J1 and K57222-313-R-J1-PDC glioblastomas, 653999-131-R-J2-PDC, LG0703-F948-PDC, and 349418-098-R-PDC non-small cell lung carcinomas, 885512-296-R-J2-PDC, 171881-019-R-J1-PDC breast carcinomas and 186277-243-T-J2-PDC and 233499-124-R-J2-PDC colon carcinomas were obtained from the NCI Patient-Derived Models Repository (PDMR, https://pdmr.cancer.gov). The established cell lines NCI/ADR-RES (RRID:CVCL_14520 and OVCAR-5 (RRID:CVCL_1628) ovarian carcinomas, 786-O (RRID:CVCL_1051) and A498 (RRID:CVCL_A498) renal cell carcinoma, NCI-H211 (ATCC, cat. CRL-5824; RRID:CVCL_1529), NCI-H196 (ATCC, cat. CRL-5823, RRID:CVCL_1509), SW 1271 (ATCC, cat. CRL-2177, RRID:CVCL_1716) and NCI-H1876 (ATCC, cat. CRL-5902, RRID:CVCL_1503) small cell lung carcinomas, MDA-MB-231 (RRID:CVCL_0062) and MDA-MB-468 (RRID:CVCL_0419)breast carcinomas (10-12). Pooled donor human umbilical vein endothelial cells (HUVEC, Lonza, cat. CC-2519) and human mesenchymal stem cells (hMSC, Lonza, cat. PT-2501) were purchased from Lonza (Walkersville, MD).
Cell Culture. All cells were maintained in an incubator at 37 degrees C and 5% CO2 with 95% humidity. The PDC lines were cultured according to standard operating procedures established by the NCI PDMR (https://pdmr.cancer.gov). Briefly all PDCs were thawed and cultured in Matrigel-coated flasks prepared with a working solution of 1X Ham's F-12 nutrient mix, without supplementation (Invitrogen, Waltham, MA, cat. 11765054), 100 U/mL penicillin-streptomycin (Invitrogen, cat. 15140122), and 2.5% Matrigel (Corning Inc., Corning, NY, cat. 354248) for the first three passages. […]
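Also: spheroids exposed to agents for seven days before readout.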
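For viability, T/C in this document: 100% = DMSO vehicle control wells as normalization base.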

SMILES: COc1cc(C2c3cc4c(cc3C(OC3OC5COC(C)OC5C(O)C3O)C3COC(=O)C23)OCO4)cc(OC)c1O (stereo not given) + NC1CC1c1ccc(-c2cccc(O)c2)cc1
- IC50 (second compound 0.1 µM): > 3000 nM
- IC50 (second compound 0.316 µM): > 3000 nM
- IC50 (second compound 1 µM): > 3000 nM
- IC50 (second compound 3.16 µM): > 3000 nM
- IC50 (second compound 10 µM): > 3000 nM
- viability, T/C (second compound 0.1 µM, first compound 0.00949 µM): 117%
- viability, T/C (second compound 0.1 µM, first compound 0.03 µM): 126%
- viability, T/C (second compound 0.1 µM, first compound 0.0949 µM): 101%
- viability, T/C (second compound 0.1 µM, first compound 0.3 µM): 98.5%
- viability, T/C (second compound 0.1 µM, first compound 0.949 µM): 89.5%
- viability, T/C (second compound 0.1 µM, first compound 3 µM): 66.9%
- viability, T/C (second compound 0.316 µM, first compound 0.00949 µM): 117%
- viability, T/C (second compound 0.316 µM, first compound 0.03 µM): 111%
- viability, T/C (second compound 0.316 µM, first compound 0.0949 µM): 106%
- viability, T/C (second compound 0.316 µM, first compound 0.3 µM): 88.4%
- viability, T/C (second compound 0.316 µM, first compound 0.949 µM): 92.2%
- viability, T/C (second compound 0.316 µM, first compound 3 µM): 75.4%
- viability, T/C (second compound 1 µM, first compound 0.00949 µM): 104%
- viability, T/C (second compound 1 µM, first compound 0.03 µM): 115%
- viability, T/C (second compound 1 µM, first compound 0.0949 µM): 105%
- viability, T/C (second compound 1 µM, first compound 0.3 µM): 95.9%
- viability, T/C (second compound 1 µM, first compound 0.949 µM): 105%
- viability, T/C (second compound 1 µM, first compound 3 µM): 77.8%
- viability, T/C (second compound 3.16 µM, first compound 0.00949 µM): 102%
- viability, T/C (second compound 3.16 µM, first compound 0.03 µM): 121%
- viability, T/C (second compound 3.16 µM, first compound 0.0949 µM): 117%
- viability, T/C (second compound 3.16 µM, first compound 0.3 µM): 100%
- viability, T/C (second compound 3.16 µM, first compound 0.949 µM): 88.1%
- viability, T/C (second compound 3.16 µM, first compound 3 µM): 86.2%
- viability, T/C (second compound 10 µM, first compound 0.00949 µM): 104%
- viability, T/C (second compound 10 µM, first compound 0.03 µM): 116%
- viability, T/C (second compound 10 µM, first compound 0.0949 µM): 99.9%
- viability, T/C (second compound 10 µM, first compound 0.3 µM): 103%
- viability, T/C (second compound 10 µM, first compound 0.949 µM): 81.6%
- viability, T/C (second compound 10 µM, first compound 3 µM): 66.8%

SMILES: Nc1ncn(C2CC(O)C(CO)O2)c(=O)n1 (stereo not given) + NC1CC1c1ccc(-c2cccc(O)c2)cc1
- IC50 (second compound 0.1 µM): > 1000 nM
- IC50 (second compound 0.316 µM): > 1000 nM
- IC50 (second compound 1 µM): > 1000 nM
- IC50 (second compound 3.16 µM): > 1000 nM
- IC50 (second compound 10 µM): > 1000 nM
- viability, T/C (second compound 0.1 µM, first compound 0.00316 µM): 106%
- viability, T/C (second compound 0.1 µM, first compound 0.01 µM): 111%
- viability, T/C (second compound 0.1 µM, first compound 0.0316 µM): 99.3%
- viability, T/C (second compound 0.1 µM, first compound 0.1 µM): 116%
- viability, T/C (second compound 0.1 µM, first compound 0.316 µM): 85.4%
- viability, T/C (second compound 0.1 µM, first compound 1 µM): 88.9%
- viability, T/C (second compound 0.316 µM, first compound 0.00316 µM): 116%
- viability, T/C (second compound 0.316 µM, first compound 0.01 µM): 117%
- viability, T/C (second compound 0.316 µM, first compound 0.0316 µM): 106%
- viability, T/C (second compound 0.316 µM, first compound 0.1 µM): 95.2%
- viability, T/C (second compound 0.316 µM, first compound 0.316 µM): 95.7%
- viability, T/C (second compound 0.316 µM, first compound 1 µM): 94.3%
- viability, T/C (second compound 1 µM, first compound 0.00316 µM): 106%
- viability, T/C (second compound 1 µM, first compound 0.01 µM): 103%
- viability, T/C (second compound 1 µM, first compound 0.0316 µM): 104%
- viability, T/C (second compound 1 µM, first compound 0.1 µM): 95.7%
- viability, T/C (second compound 1 µM, first compound 0.316 µM): 96.3%
- viability, T/C (second compound 1 µM, first compound 1 µM): 94.6%
- viability, T/C (second compound 3.16 µM, first compound 0.00316 µM): 108%
- viability, T/C (second compound 3.16 µM, first compound 0.01 µM): 112%
- viability, T/C (second compound 3.16 µM, first compound 0.0316 µM): 99.8%
- viability, T/C (second compound 3.16 µM, first compound 0.1 µM): 89.7%
- viability, T/C (second compound 3.16 µM, first compound 0.316 µM): 105%
- viability, T/C (second compound 3.16 µM, first compound 1 µM): 105%
- viability, T/C (second compound 10 µM, first compound 0.00316 µM): 103%
- viability, T/C (second compound 10 µM, first compound 0.01 µM): 104%
- viability, T/C (second compound 10 µM, first compound 0.0316 µM): 107%
- viability, T/C (second compound 10 µM, first compound 0.1 µM): 106%
- viability, T/C (second compound 10 µM, first compound 0.316 µM): 98.4%
- viability, T/C (second compound 10 µM, first compound 1 µM): 95.3%
